Experimental findings from patent publication US20070185161A1, “Bicyclic substituted indole-derivative steroid hormone nuclear receptor modulators” (priority 2004, published 2007) are described below.

The target in the test is T1, human MR (Homo sapiens, UniProt P08235).
T1 construct: The full length human MR gene is cloned from a human kidney or human brain cDNA library; made in house; host or cells: SF9 insect cells (baculovirus)
T1 sequence (P08235 1-984): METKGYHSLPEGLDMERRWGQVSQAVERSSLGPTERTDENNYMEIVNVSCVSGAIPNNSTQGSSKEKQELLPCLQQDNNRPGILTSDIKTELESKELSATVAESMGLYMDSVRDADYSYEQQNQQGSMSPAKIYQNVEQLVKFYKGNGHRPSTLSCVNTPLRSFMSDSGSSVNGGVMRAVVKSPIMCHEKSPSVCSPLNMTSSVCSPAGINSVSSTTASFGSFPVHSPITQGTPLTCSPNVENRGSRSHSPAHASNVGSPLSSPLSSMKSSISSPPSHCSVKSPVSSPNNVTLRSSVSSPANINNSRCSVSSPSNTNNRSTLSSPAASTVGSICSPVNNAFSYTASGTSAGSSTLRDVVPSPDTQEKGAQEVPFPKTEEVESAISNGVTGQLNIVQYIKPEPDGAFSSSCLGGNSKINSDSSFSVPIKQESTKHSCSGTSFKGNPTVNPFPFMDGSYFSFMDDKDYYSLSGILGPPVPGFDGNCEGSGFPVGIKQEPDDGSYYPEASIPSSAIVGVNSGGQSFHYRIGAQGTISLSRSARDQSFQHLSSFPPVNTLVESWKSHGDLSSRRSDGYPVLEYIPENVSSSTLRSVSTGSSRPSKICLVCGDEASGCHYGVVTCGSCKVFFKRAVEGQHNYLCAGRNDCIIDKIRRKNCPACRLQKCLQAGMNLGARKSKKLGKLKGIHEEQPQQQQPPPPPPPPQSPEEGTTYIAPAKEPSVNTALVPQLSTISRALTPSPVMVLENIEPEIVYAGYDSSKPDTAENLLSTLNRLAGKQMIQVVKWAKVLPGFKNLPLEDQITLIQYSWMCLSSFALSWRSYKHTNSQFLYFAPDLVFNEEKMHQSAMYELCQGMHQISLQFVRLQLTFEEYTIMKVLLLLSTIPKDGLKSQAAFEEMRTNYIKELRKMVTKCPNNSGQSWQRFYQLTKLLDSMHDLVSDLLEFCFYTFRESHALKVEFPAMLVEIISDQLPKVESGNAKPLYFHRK
Nature of the test: Mineralocorticoid Receptor Binding Assay (Method 1). To be noted: [3H]-aldosterone, racemic mixture unless otherwise indicated. The method, then:
The full length human MR gene is cloned from a human kidney or human brain cDNA library. Briefly, using synthetic oligonucleotide primers (Eli Lilly and Company, Indianapolis) directed to nucleotides 20-54 and 3700-3666 of the human MR, polymerase chain reaction (PCR) is performed under standard conditions using a human cDNA library. The PCR reaction is performed in a final volume of 50 μl containing about 1 μl of a 50× stock solution of polymerase; about 1 μl of a 50× stock solution of dNTP; about 5 μl of an appropriate PCR buffer; about 1 μl of each primer; about 5 μl of a H. kidney or H. brain cDNA library; and about 36 μl of water. The reaction is allowed to denature for about 30 seconds at 95 degrees Celsius, anneal for about 30 seconds at 55 degrees Celsius, and extend for about 5 minutes at 72 degrees Celsius, the sequence being repeated for a total of about 35 cycles. The desired PCR product (3.68 Kb) is confirmed by gel electrophoresis and subsequently cut from the gel and stored at about −20 degrees Celsius until extraction. To extract the cDNA product from the agarose gel, the QIAEX II Gel Extraction protocol (QIAGEN, Inc.) is employed according to the manufacturer's instructions. Following extraction, the MR cDNA is cloned into an appropriate cloning vector (Zero Blunt TOPO PCR Cloning Kit (Invitrogen, Inc.) and a pAcHLT-baculovirus transfer vector (B.D./Pharminogen), then expressed in SF9 insect cells, essentially according to manufacturer's instructions. Sf9 cells are grown at a scale where gram quantity cell pellets are obtained for subsequent use in the MR binding assay. Harvested cell pellets are lysed by repeated freeze-thaw cycles (about 4) in a suitable lysis buffer then centrifuged at about 1×10^3 G (with the supernatant being saved for future assays).
MR binding assays are performed in a final total volume of about 250 μl containing about 20-25 μg of protein and 0.5 nM of [^3H]-aldosterone plus varying concentrations of test compound or vehicle. The assay binding buffer consists of 30 mM sodium molybdate, 30 mM of TRIS-HCl, 5 mM sodium phosphate, 5 mM sodium pyrophosphate, and about 10% glycerol, pH=7.5.
Briefly, assays are prepared at RT in 96-well Falcon 3072 plates, each well containing 210 μl of binding buffer, 10 μl of [^3H]-aldosterone, 10 μl of test compound/vehicle, and 20 μl of the resuspended receptor protein extract. Incubations are carried out at 4 degrees Celsius with shaking for about 16 hours. 200 μl aliquots of each incubation are filtered onto Millipore HA 0.45 micron 96-well filter plates, pre-moistened with cold 30 mM TRIS-HCl. The filter plates are suctioned dry with vacuum and immediately washed 3× with cold 30 mM TRIS-HCl. The plates are then punched out and the amount of receptor-ligand complex is determined by liquid scintillation counting using 4 ml of Ready Protein Plus™ liquid scintillation cocktail.
IC50 values (defined as the concentration of test compound required to decrease [^3H]-aldosterone binding by 50%) are then determined. Ki values for each respective test compound can then be calculated by application of the Cheng-Prusoff equation as described in Cheng et al., Relationship Between The Inhibition Constant (Ki) and The Concentration of Inhibitor Which Causes 50% Inhibition (IC50) of an Enzymatic Reaction, Biochem. Pharmacol., 22: 3099-31088; (1973).

For the compound `CC1(c2c[nH]c3c(NS(C)(=O)=O)cccc23)CCOc2cc(F)ccc21` (single isomer, unassigned) [Example 34A, N-[3-(7-Fluoro-4-methyl-chroman-4-yl)-1H-indol-7-yl]-methanesulfonamide], the Ki (as a rule, a measure of affinity in units of concentration, obtained from inhibition or displacement) is at most 500 nM. Regarding `CC1(c2c[nH]c3c(NS(C)(=O)=O)cccc23)CCOc2cc(F)ccc21` (single isomer, unassigned) [Example 34B, N-[3-(7-Fluoro-4-methyl-chroman-4-yl)-1H-indol-7-yl]-methanesulfonamide], the Ki was at most 500 nM. With `CCC1(c2c[nH]c3c(NS(C)(=O)=O)cccc23)CCOc2cc(F)ccc21` (single isomer, unassigned) [Example 35A, N-[3-(4-Ethyl-7-fluoro-chroman-4-yl)-1H-indol-7-yl]-methanesulfonamide] the figure was at most 500 nM. With `CCC1(c2c[nH]c3c(NS(C)(=O)=O)cccc23)CCOc2cc(F)ccc21` (single isomer, unassigned) [Example 35B, N-[3-(4-Ethyl-7-fluoro-chroman-4-yl)-1H-indol-7-yl]-methanesulfonamide] the figure was at most 500 nM; with `CCC1(c2c[nH]c3c(NS(C)(=O)=O)cccc23)CCOc2cc(F)cc(F)c21` (single isomer, unassigned) [Example 36A, N-[3-(4-Ethyl-5,7-difluoro-chroman-4-yl)-1H-indol-7-yl]-methanesulfonamide], at most 500 nM; with `CCC1(c2c[nH]c3c(NS(C)(=O)=O)cccc23)CCOc2cc(F)cc(F)c21` (single isomer, unassigned) [Example 36B, N-[3-(4-Ethyl-5,7-difluoro-chroman-4-yl)-1H-indol-7-yl]-methanesulfonamide], at most 500 nM. With `CS(=O)(=O)Nc1cccc2c(C3(C4CC4)CCc4cc(F)ccc43)c[nH]c12` (single isomer, unassigned) [Example 39A, N-[3-(1-Cyclopropyl-5-fluoro-indan-1-yl)-1H-indol-7-yl]-methanesulfonamide] the figure was at most 500 nM; with `CS(=O)(=O)Nc1cccc2c(C3(C4CC4)CCc4cc(F)ccc43)c[nH]c12` (single isomer, unassigned) [Example 39B, N-[3-(1-Cyclopropyl-5-fluoro-indan-1-yl)-1H-indol-7-yl]-methanesulfonamide], at most 500 nM; with `CS(=O)(=O)Nc1cccc2c(C3(CCCO)CCc4cc(F)ccc43)c[nH]c12` (single isomer, unassigned) [Example 40A, N-{3-[5-Fluoro-1-(3-hydroxy-propyl)-indan-1-yl]-1H-indol-7-yl}-methanesulfonamide], at most 500 nM. Turning to `CS(=O)(=O)Nc1cccc2c(C3(CCCO)CCc4cc(F)ccc43)c[nH]c12` (single isomer, unassigned) [Example 40B, N-{3-[5-Fluoro-1-(3-hydroxy-propyl)-indan-1-yl]-1H-indol-7-yl}-methanesulfonamide], the Ki was at most 500 nM.

Turning to `CCC1(c2c[nH]c3c([N+](=O)[O-])cccc23)CCc2cc(F)ccc21` (stereo not shown) [Example 2, 3-(1-Ethyl-5-fluoro-indan-1-yl)-7-nitro-1H-indole], the Ki was at most 500 nM.

Turning to `CCC1(c2cn(C)c3c(NS(C)(=O)=O)cccc23)CCc2cc(F)ccc21` (stereo not shown) [Example 5, N-[3-(1-Ethyl-5-fluoro-indan-1-yl)-1-methyl-1H-indol-7-yl]-methanesulfonamide], the Ki was at most 500 nM. As to `CCC1(c2c[nH]c3c(N)cccc23)CCc2cc(F)ccc21` (stereo not shown) [Example 14, 3-(1-Ethyl-5-fluoro-indan-1-yl)-1H-indol-7-ylamine], the Ki was at most 500 nM.

Consider `CCC1(c2c[nH]c3c(NC(=O)OC)cccc23)CCc2cc(F)ccc21` (stereo not shown) [Example 15, [3-(1-Ethyl-5-fluoro-indan-1-yl)-1H-indol-7-yl]-carbamic acid methyl ester], for which the Ki is at most 500 nM.

For `CCC1(c2c[nH]c3c(NC(C)=O)cccc23)CCc2cc(F)ccc21` (stereo not shown) [Example 16, N-[3-(1-ethyl-5-fluoro-indan-1-yl)-1H-indol-7-yl]-acetamide], the Ki is at most 500 nM. The same measure for `CCC1(c2c[nH]c3c(NS(=O)(=O)N(C)C)cccc23)CCc2cc(F)ccc21` (stereo not shown) [Example 17]: at most 500 nM. With `CCC1(c2c[nH]c3c(NS(=O)(=O)c4ccccc4)cccc23)CCc2cc(F)ccc21` (stereo not shown) [Example 18, N-[3-(1-ethyl-5-fluoro-indan-1-yl)-1H-indol-7-yl]-benzenesulfonamide] the figure was at most 500 nM; with `CCC1(c2c[nH]c3c(NS(=O)(=O)CC)cccc23)CCc2cc(F)ccc21` (stereo not shown) [Example 19, Ethanesulfonic acid [3-(1-ethyl-5-fluoro-indan-1-yl)-1H-indol-7-yl]-amide], at most 500 nM.

`CC1(c2c[nH]c3c(NS(C)(=O)=O)cccc23)CCc2ccccc21` (stereo not shown) [Example 20, N-[3-(1-Methyl-indan-1-yl)-1H-indol-7-yl]-methanesulfonamide]: the Ki is at most 500 nM.

Turning to `CC1(c2c[nH]c3c(NS(C)(=O)=O)cccc23)CCc2cc(-n3cccn3)ccc21` (stereo not shown) [Example 24, N-[3-(1-Methyl-5-pyrazol-1-yl-indan-1-yl)-1H-indol-7-yl]-methanesulfonamide], the Ki was at most 500 nM. The same measure for `CS(=O)(=O)Nc1cccc2c(C3CCCc4ccccc43)c[nH]c12` (stereo not shown) [Example 25, N-[3-(1,2,3,4-Tetrahydro-naphthalen-1-yl)-1H-indol-7-yl]-methanesulfonamide]: at most 500 nM; for `CC1(c2c[nH]c3c(NS(C)(=O)=O)cccc23)CCCc2ccccc21` (stereo not shown) [Example 26, N-[3-(1-Methyl-1,2,3,4-tetrahydro-naphthalen-1-yl)-1H-indol-7-yl]-methanesulfonamide]: at most 500 nM; for `CCC1(c2c[nH]c3c(NS(C)(=O)=O)cccc23)CCCc2ccccc21` (stereo not shown) [Example 27, N-[3-(1-Ethyl-1,2,3,4-tetrahydro-naphthalen-1-yl)-1H-indol-7-yl]-methanesulfonamide]: at most 500 nM. The same measure for `CC1(c2c[nH]c3c(NS(C)(=O)=O)cccc23)CCOc2ccccc21` (stereo not shown) [Example 32, N-[3-(4-Methyl-chroman-4-yl)-1H-indol-7-yl]-methanesulfonamide]: at most 500 nM. With `CC1(c2c[nH]c3c(NS(C)(=O)=O)cccc23)CCOc2ccc(F)cc21` (stereo not shown) [Example 33, N-[3-(6-Fluoro-4-methyl-chroman-4-yl)-1H-indol-7-yl]-methanesulfonamide] the figure was at most 500 nM.
